Test results from patent US20210322443A1 (MAPREG, priority 2015, published 2021).

Key:
[1] = target: purified tubulin and MAP2 (Homo sapiens, UniProt P11137); experiment: Increase in optical density at 345 nm of purified tubulin and MAP2 (microtubule polymerization); assay type: biochemical; conditions: 37° C., GTP
Procedure: Activity is measured by the increase in optical density at 345 nm of a mixture of purified tubulin and MAP2, incubated at 37° C. in the presence of GTP.

PC12 cells = experiment: Stimulation of neuritic sprouting in NGF-differentiated PC12 cells; assay type: cell-based; conditions: NGF 10 ng/ml, steroid 30 μM, 3 days, relative to PREG
Procedure: Stimulation of neuritic sprouting is conducted on PC12 cells differentiated in the presence of NGF (10 ng/ml) and the steroid being tested (30 μM) for 3 days. For each condition, the average length of the longest 200 neurites in each cell is measured simultaneously for 3 cultures.

MAP2 = MAP2 (Homo sapiens, UniProt P11137); experiment: Binding by displacement of PREG-3H
Chain of MAP2 (P11137 whole entry): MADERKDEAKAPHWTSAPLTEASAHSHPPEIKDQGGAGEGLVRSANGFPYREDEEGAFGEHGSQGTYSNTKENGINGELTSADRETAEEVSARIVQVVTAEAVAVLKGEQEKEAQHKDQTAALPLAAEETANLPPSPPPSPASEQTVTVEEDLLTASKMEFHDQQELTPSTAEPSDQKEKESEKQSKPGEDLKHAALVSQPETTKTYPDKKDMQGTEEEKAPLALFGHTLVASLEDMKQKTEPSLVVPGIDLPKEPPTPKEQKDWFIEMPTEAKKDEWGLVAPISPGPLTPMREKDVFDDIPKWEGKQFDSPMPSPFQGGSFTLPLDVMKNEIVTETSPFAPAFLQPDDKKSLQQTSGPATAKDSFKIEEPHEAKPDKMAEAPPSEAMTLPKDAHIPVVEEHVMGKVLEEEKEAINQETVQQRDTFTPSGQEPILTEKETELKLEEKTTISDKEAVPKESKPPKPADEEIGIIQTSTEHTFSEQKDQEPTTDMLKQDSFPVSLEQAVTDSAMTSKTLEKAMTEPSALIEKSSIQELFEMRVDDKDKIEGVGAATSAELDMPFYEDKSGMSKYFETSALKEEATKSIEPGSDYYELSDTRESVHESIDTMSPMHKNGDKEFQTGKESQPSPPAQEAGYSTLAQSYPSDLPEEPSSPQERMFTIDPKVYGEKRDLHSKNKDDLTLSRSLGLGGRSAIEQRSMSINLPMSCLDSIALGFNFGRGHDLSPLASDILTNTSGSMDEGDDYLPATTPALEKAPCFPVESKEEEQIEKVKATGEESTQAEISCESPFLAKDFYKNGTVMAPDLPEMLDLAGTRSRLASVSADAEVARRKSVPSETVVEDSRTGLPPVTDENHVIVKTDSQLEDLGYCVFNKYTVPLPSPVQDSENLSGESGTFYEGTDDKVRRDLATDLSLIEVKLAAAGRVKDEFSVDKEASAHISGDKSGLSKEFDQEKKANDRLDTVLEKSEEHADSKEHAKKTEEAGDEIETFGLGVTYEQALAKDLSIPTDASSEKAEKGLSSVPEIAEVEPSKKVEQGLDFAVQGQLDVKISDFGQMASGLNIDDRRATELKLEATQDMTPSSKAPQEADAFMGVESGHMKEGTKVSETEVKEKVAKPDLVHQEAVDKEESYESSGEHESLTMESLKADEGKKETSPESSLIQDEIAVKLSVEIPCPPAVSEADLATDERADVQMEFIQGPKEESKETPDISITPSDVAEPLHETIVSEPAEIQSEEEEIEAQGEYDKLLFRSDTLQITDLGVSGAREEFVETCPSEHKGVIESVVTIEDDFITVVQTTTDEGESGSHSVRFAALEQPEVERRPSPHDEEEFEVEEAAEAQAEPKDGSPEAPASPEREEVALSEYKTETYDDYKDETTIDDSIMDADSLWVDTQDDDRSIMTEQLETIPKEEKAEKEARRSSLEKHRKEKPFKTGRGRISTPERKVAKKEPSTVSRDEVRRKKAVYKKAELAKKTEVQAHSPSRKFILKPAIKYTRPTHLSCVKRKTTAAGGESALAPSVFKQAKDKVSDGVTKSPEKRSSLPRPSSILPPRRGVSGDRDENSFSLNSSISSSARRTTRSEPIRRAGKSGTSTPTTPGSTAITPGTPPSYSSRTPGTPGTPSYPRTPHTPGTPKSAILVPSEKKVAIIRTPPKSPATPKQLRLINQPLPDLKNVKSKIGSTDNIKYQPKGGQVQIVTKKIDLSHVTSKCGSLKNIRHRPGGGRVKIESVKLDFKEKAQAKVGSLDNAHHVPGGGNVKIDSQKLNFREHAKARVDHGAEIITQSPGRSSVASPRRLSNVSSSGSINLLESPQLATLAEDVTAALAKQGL

[2] = target: T1, human progesterone receptor(PR) (Homo sapiens, UniProt P06401); experiment: Progesterone receptor agonist transactivation (MMTV-luciferase) in transfected HEK293T cells; assay type: cell-based; conditions: 24 hours, increasing amounts, FIG. 1
T1 construct: expressed in transfected cells; host or cells: HEK293T
T1 sequence (P06401 1-933): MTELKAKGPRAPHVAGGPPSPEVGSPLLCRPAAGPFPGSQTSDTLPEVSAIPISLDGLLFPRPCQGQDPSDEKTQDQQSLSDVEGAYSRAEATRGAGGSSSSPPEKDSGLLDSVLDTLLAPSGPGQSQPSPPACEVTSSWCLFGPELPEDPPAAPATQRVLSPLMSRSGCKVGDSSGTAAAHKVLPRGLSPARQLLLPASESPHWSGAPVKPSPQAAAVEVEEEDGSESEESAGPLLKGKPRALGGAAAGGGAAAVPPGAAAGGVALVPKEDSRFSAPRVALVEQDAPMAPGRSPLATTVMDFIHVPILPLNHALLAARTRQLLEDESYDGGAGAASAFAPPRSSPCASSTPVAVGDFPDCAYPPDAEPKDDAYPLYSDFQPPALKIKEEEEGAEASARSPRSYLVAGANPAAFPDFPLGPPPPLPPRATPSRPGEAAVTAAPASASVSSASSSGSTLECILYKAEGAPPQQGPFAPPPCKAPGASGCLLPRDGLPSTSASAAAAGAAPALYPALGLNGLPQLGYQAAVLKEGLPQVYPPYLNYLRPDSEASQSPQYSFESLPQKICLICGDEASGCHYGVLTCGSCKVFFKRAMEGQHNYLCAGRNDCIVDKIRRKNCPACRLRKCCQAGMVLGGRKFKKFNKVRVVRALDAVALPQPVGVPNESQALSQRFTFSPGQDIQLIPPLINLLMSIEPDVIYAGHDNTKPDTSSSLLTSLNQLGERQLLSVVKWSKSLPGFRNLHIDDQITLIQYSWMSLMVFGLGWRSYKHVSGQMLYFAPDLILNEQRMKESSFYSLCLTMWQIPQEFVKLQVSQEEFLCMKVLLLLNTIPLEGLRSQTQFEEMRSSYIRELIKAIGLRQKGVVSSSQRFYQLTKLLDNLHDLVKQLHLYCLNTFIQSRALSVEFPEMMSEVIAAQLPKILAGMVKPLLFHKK
Procedure: The main experimental setting used is the following: HEK293T cells were transiently transfected, using calcium phosphate precipitation technology, with expression vectors pSG5hPR (which permits expression of human progesterone receptor(PR)), pFC31-luc (contains the luciferase gene under the control of the MMTV promoter, which is in turn activated by binding of a progestin to progesterone receptor) and pcbetagal (which permits expression of betagalactosidase), and cultured during 24 hours with increasing amounts of various compositions: • 1. […] Test of progesterone receptor […] activity: transfected cells were cultured with progesterone (1 nM) and increasing amounts of RU486 (a well-known progesterone receptor antagonist) or 3-methoxy-pregnenolone. • With this setting, a compound with progesterone receptor antagonist activity competes with progesterone for the occupation of progesterone receptor and results in a progressive loss of transactivation activity when the amount of this compound is increased compared to progesterone.

Chain of purified tubulin and MAP2 (P11137 whole entry): as the sequence (P11137 whole entry) above

Row | SMILES | Activity (percent of PREG) [1] | Neuritic sprouting (PC12 cells) | Affinity (index of binding, percent of PREG) (MAP2) | progesterone receptor agonist activity (transactivation, luciferase expression) [2]
1 | CO[C@H]1CC[C@@]2(C)[C@@H](CC[C@@H]3[C@@H]2CC[C@]2(C)[C@@H](C(C)=O)CC[C@@H]32)C1 [3B-methoxy-5a-pregnane-20-one, 3β-methoxy-5α-pregnane-20-one] | 10% of PREG | +++ | 87% of PREG | –
2 | CO[C@H]1CC[C@@]2(C)C(CCC3C2CC[C@@]2(C)C3CC[C@@H]2[C@@H](C)O)C1 (stereo partly drawn) [3B-methoxy-5a-pregnane-20B-ol, 3β-methoxy-5α-pregnane-20β-ol] | 65% of PREG | ++ (equal to) | 65% of PREG | –
3 | CO[C@H]1CC[C@@]2(C)C(=CC[C@H]3C4=CC[C@H](C(C)=O)[C@@]4(C)CC[C@@H]32)C1 [3B-methoxy-pregna-5,14-diene-20-one] | 50% of PREG | + (stimulation is lower than) | 102% of PREG | –
4 | CO[C@H]1CC[C@@]2(C)C(=CC[C@@H]3[C@@H]2CC[C@@]2(C)[C@H]3CC[C@@]2(C(C)=O)C(Cl)Cl)C1 [3β-methoxy-pregna-5-ene-20-one-17α-dichloromethyl] | 113% of PREG | – | 53% of PREG | –
5 | CC(=O)[C@H]1CC[C@H]2[C@@H]3CC=C4C[C@@H](O)CC[C@]4(C)[C@H]3CC[C@]12C [Pregnenolone (PREG), 3β-hydroxypregn-5-en-20-one, reference compound] | 100% of PREG | – | 100% of PREG | –
6 | CC(=O)[C@H]1CC[C@H]2[C@@H]3CCC4=CC(=O)CC[C@]4(C)[C@H]3CC[C@]12C [progesterone, reference compound] | – | – | – | permits a transactivation activity leading to the expression of luciferase
